According to paper PMC10525516, “Novel NADPH Oxidase-2 Inhibitors as Potential Anti-Inflammatory and Neuroprotective Agents” (Antioxidants, 2023):
Like-named read-outs stand apart in the source and are kept apart here.

Experiments:
[1] = target: T1, Nox2 (Homo sapiens, UniProt P04839); test: Seahorse XFe96 oxygen consumption in dHL60 cells before and after PMA; format: cell-based
T1 construct: endogenous in cells
T1 sequence (P04839 2-570 limits assumed): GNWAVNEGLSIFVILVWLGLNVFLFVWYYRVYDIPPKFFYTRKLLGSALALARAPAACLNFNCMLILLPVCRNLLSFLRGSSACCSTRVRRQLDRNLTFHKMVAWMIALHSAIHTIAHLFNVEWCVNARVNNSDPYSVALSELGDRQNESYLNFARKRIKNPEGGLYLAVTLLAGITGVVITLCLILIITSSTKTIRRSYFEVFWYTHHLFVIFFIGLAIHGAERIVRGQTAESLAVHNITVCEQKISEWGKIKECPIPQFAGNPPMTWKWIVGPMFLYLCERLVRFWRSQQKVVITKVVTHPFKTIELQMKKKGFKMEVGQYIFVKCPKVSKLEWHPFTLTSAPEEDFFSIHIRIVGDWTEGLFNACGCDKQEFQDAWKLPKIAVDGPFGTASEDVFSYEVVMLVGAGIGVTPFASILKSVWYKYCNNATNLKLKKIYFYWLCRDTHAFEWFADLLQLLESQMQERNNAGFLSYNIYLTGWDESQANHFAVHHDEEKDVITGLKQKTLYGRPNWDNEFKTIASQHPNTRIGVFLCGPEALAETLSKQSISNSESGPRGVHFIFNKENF
T1 sequence (P13498 2-195 partner limits assumed): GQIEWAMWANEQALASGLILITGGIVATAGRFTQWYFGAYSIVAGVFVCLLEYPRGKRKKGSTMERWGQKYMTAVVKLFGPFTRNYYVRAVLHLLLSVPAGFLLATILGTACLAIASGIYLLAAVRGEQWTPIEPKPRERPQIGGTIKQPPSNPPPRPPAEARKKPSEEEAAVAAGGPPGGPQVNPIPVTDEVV
Experimental: Oxygen consumption in dHL60 cells was monitored before and after the sequential addition of the candidate Nox inhibitors and PMA using a Seahorse XFe96 extracellular flux analyzer (Agilent Technologies, Santa Clara, CA, USA). The cell suspension was prepared in phenol red-free RPMI medium (without bicarbonate) and aliquoted (80 µL/well) into a 96-well plate to obtain a final cell number of 2 × 10^4 cells/well. Cells were spun down and an additional amount of RPMI medium (100 µL/well) was added gently so as not to disturb the cells at the bottom of the wells. The solutions for injections were prepared 10× concentrated, loaded into the injection ports of the Seahorse XFe96 cartridge, and the volumes injected were 20 µL and 22.2 µL for the compounds tested and PMA, respectively. The oxygen consumption rates were monitored for 30 min before injection (baseline respiration rate), 60 min after injection of different concentrations of the candidate Nox inhibitors, and 2 h after injection of PMA (final concentration: 1 µM). Increases in OCR values after PMA injection were used as a measure of Nox2 activity.

[2] = Plasma and brain pharmacokinetics in C57BL/6 mice; format: in vivo; conditions: male, C57BL/6, mouse, ip, C57BL6 mice, single dose 20 mg/kg i.p.
Experimental: TG15-132 at a 20 mg/kg dose in a vehicle formulation of 10% DMSO, 50% PEG400, and 40% reversed osmosis-purified water (v/v) was administered to healthy male C57BL/6 mice weighing an average of 27 g by intraperitoneal (i.p.) injection. Blood samples (approximately 60 μL) were collected from the retro-orbital plexus of three animals at times 0.08, 0.25, 0.5, 1, 2, 4, 8, and 24 h after compound administration. Along with the terminal blood samples, the brain samples were also collected at the time points 0.25, 0.5, 2.0, 4.0, 8.0, and 24 h.
Blood samples were collected into labeled microtubes containing dipotassium EDTA solution (20%) as an anticoagulant. Plasma was immediately harvested from the blood by centrifugation at 4000 rpm for 10 min at 4 ± 2 °C and stored below −70 °C until bioanalysis. After isolation, brain tissue samples were rinsed three times in ice cold normal saline (for 5–10 s/rinse using ~5–10 mL normal saline in disposable petri dishes for each rinse) and dried on blotting paper. Tissue samples were homogenized using ice-cold phosphate-buffered saline (pH 7.4). The total homogenate volume (µL) was three times the tissue weight (mg). All homogenates were stored below −70 ± 10 °C until bioanalysis. Concentrations of TG15-132 in plasma and brain samples were determined by fit-for-purpose liquid chromatography with the tandem mass spectrometry method (Sai-Life, Hyderabad, India). Phoenix WinNonlin (version 8.0, Certara, Princeton, NJ, USA) was used to analyze the pharmacokinetic parameters.

[3] = Short-term (seven day) in vivo toxicity in mice; design: species or system C57BL/6 mice; conditions: 20 mg/kg i.p. daily for seven days
Experimental: All animal experiments were performed according to protocols and guidelines approved by the Emory University Animal Care and Use Committee. The in vivo toxicity of TG15-132 was assessed using C57BL/6 mice (cat. no. 027, Charles River Laboratories, Wilmington, MA, USA). Animals were injected daily (i.p.) with saline, vehicle (DMSO 10%, PEG400 30%, water 60%), or 20 mg/kg of TG15-132 in vehicle for seven days, with body weight recorded each day. At the end of treatment, organs were harvested to study organ weight loss, and blood was collected from each mouse via cardiac puncture, and serum was isolated. Serum was analyzed for kidney function using blood urea nitrogen and creatinine, liver function using alanine amino transferase, and tissue damage using lactate dehydrogenase.

For `CN(C)CCCn1c(SCCc2c[nH]c3ccccc23)nc2ccc(F)cc2c1=O` [TG15-132], the “basal respiration (OCR)” value ([1]; 1 h after compound injection, before PMA, concentrations that inhibit PMA-induced OCR) was “no inhibition of basal respiration”, the “PMA-induced OCR” value ([1]; PMA 1 µM after 1 h compound) was “significant inhibition of PMA-induced OCR” and the half-life ([2]; brain, read-out: brain half-life (converted)) was 2.7 h. The Kp ([2]; brain, read-out: brain-to-plasma ratio) was greater than 6, the half-life ([2]; plasma, read-out: plasma half-life (converted)) was 2.7 h and the “blood urea nitrogen compared with saline-treated mice” value [3] was “significant drop”. For the same compound, the “weights of the lung, liver, or brain” value [3] was “no changes”, the “loss of body weight” value ([3]; marginal and nonsignificant) was 7% and the “serum injury markers (BUN, creatinine, ALT, LDH) vs vehicle” value ([3]; n = 6) was “no differences”.
